Key:
Experiment in all cases: Test B pre-/postemergence
Type in all cases: in vivo
Parameters in all cases: key: 0 is no effect; 10 is complete control
[1] = system: sugar beet (Beta vulgaris)
Summary of the method: (§1)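 Response scores run from 0, meaning no effect, to 10, meaning complete control, assigned by eye relative to controls twelve to sixteen days after spraying. Treatment was both preemergence on planted seed and postemergence on plants at the 1- to 4-leaf stage.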

[2] = system: broadleaf signalgrass (Brachiaria decumbens)
Summary of the method: as §1

[3] = system: blackgrass (Alopecurus myosuroides)
Summary of the method: as §1

[4] = system: crabgrass (Digitaria sanguinalis)
Summary of the method: as §1

rape (Brassica napus) = system: rape (Brassica napus)
Summary of the method: as §1

wild oat (Avena fatua) = system: wild oat (Avena fatua)
Summary of the method: as §1

soybean (Glycine max) = system: soybean (Glycine max)
Summary of the method: as §1

[5] = system: cocklebur (Xanthium strumarium)
Summary of the method: as §1

[6] = system: velvetleaf (Abutilon theophrasti)
Summary of the method: as §1

[7] = system: bedstraw (Galium aparine)
Summary of the method: as §1

[8] = system: momingglory (Ipomoea hederacea)
Summary of the method: as §1

corn (Zea mays) = system: corn (Zea mays)
Summary of the method: as §1

[9] = system: wheat (Triticum aestivum)
Summary of the method: as §1

[10] = system: pigweed (Amaranthus retroflexus)
Summary of the method: as §1

[11] = Preemergence, Rate 62 g/ha, scale of 0 to 10

## Cc1cnc(-n2cnc(C(F)(F)F)c2)nc1C(=O)c1cccc(C(F)(F)F)c1 [Compound 61]
[1]; [11]
  Plant response rating, Sugarbeets: 10
[1]; Rate 62 g/ha, Postemergence
  Sugarbeets plant response rating: 9
[1]; Rate 125 g/ha, Postemergence
  Sugarbeets plant response rating: 10
[1]; Rate 125 g/ha, Preemergence
  Plant response rating, Sugarbeets: 10
[1]; Rate 250 g/ha, Postemergence
  Plant response rating, Sugarbeets: 10
[1]; Rate 250 g/ha, Preemergence
  Plant response rating, Sugarbeets: 10
[1]; Rate 500 g/ha, Postemergence
  Plant response rating, Sugarbeets: 10
[1]; Rate 500 g/ha, Preemergence
  Plant response rating, Sugarbeets: 10
[2]; Rate 62 g/ha, Postemergence
  B. signalgrass plant response rating: 3
[2]; Rate 62 g/ha, Preemergence
  B. signalgrass plant response rating: 5
[2]; Rate 125 g/ha, Postemergence
  B. signalgrass plant response rating: 4
[2]; Rate 125 g/ha, Preemergence
  Plant response rating, B. signalgrass: 7
[2]; Rate 250 g/ha, Postemergence
  Plant response rating, B. signalgrass: 4
[2]; Rate 250 g/ha, Preemergence
  Plant response rating, B. signalgrass: 8
[2]; Rate 500 g/ha, Postemergence
  Plant response rating, B. signalgrass: 5
[2]; Rate 500 g/ha, Preemergence
  Plant response rating, B. signalgrass: 9
[3]; [11]
  Plant response rating, Blackgrass: 1
[3]; Rate 62 g/ha, Postemergence
  Blackgrass plant response rating: 3
[3]; Rate 125 g/ha, Postemergence
  Blackgrass plant response rating: 4
[3]; Rate 125 g/ha, Preemergence
  Plant response rating, Blackgrass: 3
[3]; Rate 250 g/ha, Postemergence
  Plant response rating, Blackgrass: 6
[3]; Rate 250 g/ha, Preemergence
  Plant response rating, Blackgrass: 5
[3]; Rate 500 g/ha, Postemergence
  Plant response rating, Blackgrass: 8
[3]; Rate 500 g/ha, Preemergence
  Plant response rating, Blackgrass: 8
[4]; [11]
  Plant response rating, Crabgrass: 3
[4]; Rate 62 g/ha, Postemergence
  Crabgrass plant response rating: 3
[4]; Rate 125 g/ha, Postemergence
  Crabgrass plant response rating: 3
[4]; Rate 125 g/ha, Preemergence
  Plant response rating, Crabgrass: 5
[4]; Rate 250 g/ha, Postemergence
  Plant response rating, Crabgrass: 7
[4]; Rate 250 g/ha, Preemergence
  Plant response rating, Crabgrass: 8
[4]; Rate 500 g/ha, Postemergence
  Plant response rating, Crabgrass: 9
[4]; Rate 500 g/ha, Preemergence
  Plant response rating, Crabgrass: 10
Rape (Brassica napus); [11]
  Plant response rating, Rape: 4
Rape (Brassica napus); Rate 62 g/ha, Postemergence
  Rape plant response rating: 6
Rape (Brassica napus); Rate 125 g/ha, Postemergence
  Rape plant response rating: 7
Rape (Brassica napus); Rate 125 g/ha, Preemergence
  Plant response rating, Rape: 8
Rape (Brassica napus); Rate 250 g/ha, Postemergence
  Plant response rating, Rape: 8
Rape (Brassica napus); Rate 250 g/ha, Preemergence
  Plant response rating, Rape: 9
Rape (Brassica napus); Rate 500 g/ha, Postemergence
  Plant response rating, Rape: 9
Rape (Brassica napus); Rate 500 g/ha, Preemergence
  Plant response rating, Rape: 9
Wild oat (Avena fatua); [11]
  Plant response rating, Wild oats: 4
Wild oat (Avena fatua); Rate 62 g/ha, Postemergence
  Wild oats plant response rating: 3
Wild oat (Avena fatua); Rate 125 g/ha, Postemergence
  Wild oats plant response rating: 3
Wild oat (Avena fatua); Rate 125 g/ha, Preemergence
  Plant response rating, Wild oats: 5
Wild oat (Avena fatua); Rate 250 g/ha, Postemergence
  Plant response rating, Wild oats: 3
Wild oat (Avena fatua); Rate 250 g/ha, Preemergence
  Plant response rating, Wild oats: 7
Wild oat (Avena fatua); Rate 500 g/ha, Postemergence
  Plant response rating, Wild oats: 5
Wild oat (Avena fatua); Rate 500 g/ha, Preemergence
  Plant response rating, Wild oats: 8
Soybean (Glycine max); [11]
  Plant response rating, Soybean: 0
Soybean (Glycine max); Rate 62 g/ha, Postemergence
  Soybean plant response rating: 4
Soybean (Glycine max); Rate 125 g/ha, Postemergence
  Soybean plant response rating: 5
Soybean (Glycine max); Rate 125 g/ha, Preemergence
  Plant response rating, Soybean: 1
Soybean (Glycine max); Rate 250 g/ha, Postemergence
  Plant response rating, Soybean: 5
Soybean (Glycine max); Rate 250 g/ha, Preemergence
  Plant response rating, Soybean: 1
Soybean (Glycine max); Rate 500 g/ha, Postemergence
  Plant response rating, Soybean: 6
Soybean (Glycine max); Rate 500 g/ha, Preemergence
  Plant response rating, Soybean: 2
[5]; [11]
  Plant response rating, Cocklebur: 0
[5]; Rate 62 g/ha, Postemergence
  Cocklebur plant response rating: 3
[5]; Rate 125 g/ha, Postemergence
  Cocklebur plant response rating: 7
[5]; Rate 125 g/ha, Preemergence
  Plant response rating, Cocklebur: 0
[5]; Rate 250 g/ha, Postemergence
  Plant response rating, Cocklebur: 8
[5]; Rate 250 g/ha, Preemergence
  Plant response rating, Cocklebur: 1
[5]; Rate 500 g/ha, Postemergence
  Plant response rating, Cocklebur: 8
[5]; Rate 500 g/ha, Preemergence
  Plant response rating, Cocklebur: 10
[6]; [11]
  Plant response rating, Velvetleaf: 9
[6]; Rate 62 g/ha, Postemergence
  Velvetleaf plant response rating: 7
[6]; Rate 125 g/ha, Postemergence
  Velvetleaf plant response rating: 7
[6]; Rate 125 g/ha, Preemergence
  Plant response rating, Velvetleaf: 10
[6]; Rate 250 g/ha, Postemergence
  Plant response rating, Velvetleaf: 8
[6]; Rate 250 g/ha, Preemergence
  Plant response rating, Velvetleaf: 10
[6]; Rate 500 g/ha, Postemergence
  Plant response rating, Velvetleaf: 8
[6]; Rate 500 g/ha, Preemergence
  Plant response rating, Velvetleaf: 10
[7]; [11]
  Plant response rating, Bedstraw: 3
[7]; Rate 62 g/ha, Postemergence
  Bedstraw plant response rating: 8
[7]; Rate 125 g/ha, Postemergence
  Bedstraw plant response rating: 8
[7]; Rate 125 g/ha, Preemergence
  Plant response rating, Bedstraw: 4
[7]; Rate 250 g/ha, Postemergence
  Plant response rating, Bedstraw: 9
[7]; Rate 250 g/ha, Preemergence
  Plant response rating, Bedstraw: 6
[7]; Rate 500 g/ha, Postemergence
  Plant response rating, Bedstraw: 9
[7]; Rate 500 g/ha, Preemergence
  Plant response rating, Bedstraw: 9
[8]; Rate 62 g/ha, Postemergence
  Morningglory plant response rating: 5
[8]; Rate 125 g/ha, Postemergence
  Morningglory plant response rating: 9
[8]; Rate 125 g/ha, Preemergence
  Plant response rating, Morningglory: 3
[8]; Rate 250 g/ha, Preemergence
  Plant response rating, Morningglory: 10
[8]; Rate 500 g/ha, Postemergence
  Plant response rating, Morningglory: 9
[8]; Rate 500 g/ha, Preemergence
  Plant response rating, Morningglory: 10
Corn (Zea mays); [11]
  Plant response rating, Corn: 1
Corn (Zea mays); Rate 62 g/ha, Postemergence
  Corn plant response rating: 2
Corn (Zea mays); Rate 125 g/ha, Postemergence
  Corn plant response rating: 3
Corn (Zea mays); Rate 125 g/ha, Preemergence
  Plant response rating, Corn: 1
Corn (Zea mays); Rate 250 g/ha, Postemergence
  Plant response rating, Corn: 3
Corn (Zea mays); Rate 250 g/ha, Preemergence
  Plant response rating, Corn: 1
Corn (Zea mays); Rate 500 g/ha, Postemergence
  Plant response rating, Corn: 4
Corn (Zea mays); Rate 500 g/ha, Preemergence
  Plant response rating, Corn: 2
[9]; [11]
  Plant response rating, Wheat: 1
[9]; Rate 62 g/ha, Postemergence
  Wheat plant response rating: 3
[9]; Rate 125 g/ha, Postemergence
  Wheat plant response rating: 3
[9]; Rate 125 g/ha, Preemergence
  Plant response rating, Wheat: 3
[9]; Rate 250 g/ha, Postemergence
  Plant response rating, Wheat: 3
[9]; Rate 250 g/ha, Preemergence
  Plant response rating, Wheat: 4
[9]; Rate 500 g/ha, Postemergence
  Plant response rating, Wheat: 4
[9]; Rate 500 g/ha, Preemergence
  Plant response rating, Wheat: 4
[10]; [11]
  Plant response rating, Redroot pigweed: 8
[10]; Rate 62 g/ha, Postemergence
  Redroot pigweed plant response rating: 8
[10]; Rate 125 g/ha, Postemergence
  Redroot pigweed plant response rating: 9
[10]; Rate 125 g/ha, Preemergence
  Plant response rating, Redroot pigweed: 9
[10]; Rate 250 g/ha, Postemergence
  Plant response rating, Redroot pigweed: 9
[10]; Rate 250 g/ha, Preemergence
  Plant response rating, Redroot pigweed: 9
[10]; Rate 500 g/ha, Postemergence
  Plant response rating, Redroot pigweed: 9
[10]; Rate 500 g/ha, Preemergence
  Plant response rating, Redroot pigweed: 10

Reference: patent US6525001B1, “Substituted pyrimidine and pyridine herbicides” (Mid-American Commercialization Corporation, priority 1997, dated 2003)
